According to patent US20100209959A1, “TUMOUR-CELL-FIXING CELLS” (UNIVERSITE PIERRE ET MARIE CURIE-PARIS VI, priority 2007, published 2010):

Assays:
HL60 cells [1] = assay: Proliferation of HL60 cells, free or fixed to hospicells, after exposure to AraC or DNR; assay type: cell-based, human; settings: for living HL60 cells fixed to the hospicells during treatment / living free HL60 cells during treatment: 5 days' treatment; for living HL60 cells fixed to the hospicells during treatment / living HL60 cells on hospicells after the treatment is stopped: HL60 fixed to hospicells; for living HL60 cells on hospicells after the treatment is stopped / growth of free HL60 cells after the treatment is stopped: drug removed, fresh medium
Experimental: (§1) HL60 cells cultured with hospicells in RPMI medium were treated for 5 days with either aracytin (AraC) or daunorubicin (DNR).
After 5 days' treatment, the drug was removed and the cells were cultured again in fresh medium.
The number of living HL60 cells was measured throughout the experiment using the image analysis system.

hospicells = assay: Toxicity of the drug for hospicells in HL60/hospicell co-culture; assay type: cell-based
Experimental: as §1
This effect of “regrowth” of the cells is greater with aracytin than with daunorubicin, the difference being linked to the toxicity of daunorubicin for the hospicells.

HL60 cells [2] = assay: Adhesion of HL60 cells to hospicells; assay type: cell-based, human; settings: HL60 incubated beforehand with agent; tumour cells/hospicells 5/1; 24 hours at 37° C.
Experimental: HL60 cells were incubated in RPMI medium under […]: • HL60 cells alone (control) • HL60 cells+anti-arrestin antibody (control antibody) • HL60 cells+RGD (Arg-Gly-Asp, integrin consensus sequence, which partially prevents integrin dependent adhesion) • HL60 cells+anti-CD11a antibody • HL60 cells+anti-CD49d antibody • HL60 cells+anti-CD11a antibody+anti-CD49d antibody • HL60 cells+anti-CD11a antibody+anti-CD49d antibody+RGD
For each condition, HL60 cells were deposited separately and in identical amounts in 6 different wells containing complete RPMI medium and fixing cells which had adhered to the support. The ratio between tumour cells and hospicells was 5/1. After incubation for 24 hours at 37° C., the HL60 cells that had not adhered were recovered and counted. The percentage of HL60 cells adhering to the hospicells was then calculated for each condition.

OVCAR3 cells = assay: Chemoresistance of OVCAR3 cells co-cultured with hospicells (SRB assay); assay type: cell-based; settings: verapamil 1.4 μM added, in the presence of carboplatin and paclitaxel
Experimental: Briefly, the hospicells were cultivated to 60% confluence. 2·10^4 OVCAR3 cells expressing GFP were then co-cultivated with the hospicells for 24 hours before being brought into contact with a chemotherapeutic agent (carboplatin 22.2 μM and paclitaxel 1.4 μM). The chemotherapeutic effect was determined with the aid of a quantitative colorimetric assay with sulforhodamine B (SRB) as described by Skehan et al. (1990) J. Natl. Cancer Inst. 82:1107-1112. The pink colour of the SRB was quantified by measuring the absorbance at 540 nm. For each condition, the mean cell density and the standard deviation were calculated from the data obtained for 6 wells. The experiments were repeated 3 times.
The role of the MDR proteins in the chemoresistance imparted by the hospicells was confirmed by repeating the above co-culture experiments of hospicells and OVCAR3 cells in the presence of carboplatin and paclitaxel, and adding to the culture medium verapamil (1.4 μM), an MDR1 protein inhibitor.

Compound | living HL60 cells fixed to the hospicells during treatment (HL60 cells [1]) | living HL60 cells on hospicells after the treatment is stopped (HL60 cells [1]) | effect of regrowth of the HL60 cells on hospicells, aracytin compared with daunorubicin (HL60 cells [1]; after the treatment is stopped) | living free HL60 cells during treatment (HL60 cells [1]) | growth of free HL60 cells after the treatment is stopped (HL60 cells [1]) | toxicity for the hospicells (hospicells) | adhesion of the HL60 cells to the hospicells (HL60 cells [2]) | chemoresistance imparted by the hospicells to the OVCAR3 cells (OVCAR3 cells)
Nc1ccn([C@@H]2O[C@H](CO)[C@@H](O)[C@@H]2O)c(=O)n1 [AraC, aracytin] | no longer detectable | living HL60 cells are identifiable | greater | die | do not grow | – | – | –
COc1cccc2c1C(=O)c1c(O)c3c(c(O)c1C2=O)C[C@@](O)(C(C)=O)C[C@@H]3O[C@H]1C[C@H](N)[C@H](O)[C@H](C)O1 [DNR, daunorubicin] | no longer detectable | living HL60 cells are identifiable | – | die | do not grow | toxicity | – | –
Arg-Gly-Asp [RGD] | – | – | – | – | – | – | partially blocks | –
COc1ccc(CCN(C)CCCC(C#N)(c2ccc(OC)c(OC)c2)C(C)C)cc1OC (stereo not drawn) [verapamil] | – | – | – | – | – | – | – | dramatically reduces
